# Earlier results as cited in patent publication US20120021064A1, “COMPOSITIONS FOR BOWEL PREPARATION AND METHODS OF USE THEREOF” (Salix Pharmaceuticals, Ltd., priority 2009, published 2012).
# Read-outs that look alike come from different tables or passages of the source.
smiles,measurement,setting,value
CC(=O)Oc1ccc(C(c2ccc(OC(C)=O)cc2)c2ccccn2)cc1 [Bisacodyl],time to produce a bowel movement,enemas,about 20 minutes
same,time to produce a bowel movement,suppositories,about an hour
